PubChem BioAssay (NCI)
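Grown in 96-well plates, cells were treated for 48 hours with each compound at five concentrations. Insufficient inhibition: endpoint recorded as highest concentration tested. Here, GI50 denotes the concentration required for 50% inhibition of growth. The concentration for full growth arrest is given as TGI.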

Assays:
Experiment in all cases: NCI tumour cell line growth inhibition, 48 h
TK-10 renal = tested on: TK-10 renal
SF-539 CNS = tested on: SF-539 CNS
CCRF-CEM leukemia = tested on: CCRF-CEM leukemia
SN12C renal = tested on: SN12C renal
NCI-H460 lung = tested on: NCI-H460 lung
SK-MEL-2 melanoma = tested on: SK-MEL-2 melanoma
SR leukemia = tested on: SR leukemia
OVCAR-3 ovarian = tested on: OVCAR-3 ovarian
NCI-H226 lung = tested on: NCI-H226 lung
HCT-15 colon = tested on: HCT-15 colon
OVCAR-8 ovarian = tested on: OVCAR-8 ovarian
HS 578T breast = tested on: HS 578T breast
HL-60(TB) leukemia = tested on: HL-60(TB) leukemia
IGROV1 ovarian = tested on: IGROV1 ovarian
SW-620 colon = tested on: SW-620 colon
MDA-MB-435 = tested on: MDA-MB-435
HOP-92 NSCLC = tested on: HOP-92 NSCLC
RPMI-8226 leukemia = tested on: RPMI-8226 leukemia
KM12 colon = tested on: KM12 colon
SNB-19 CNS = tested on: SNB-19 CNS
SK-MEL-5 melanoma = tested on: SK-MEL-5 melanoma
HOP-62 NSCLC = tested on: HOP-62 NSCLC
LOX IMVI melanoma = tested on: LOX IMVI melanoma
NCI-H23 lung = tested on: NCI-H23 lung
SK-OV-3 ovarian = tested on: SK-OV-3 ovarian
NCI/ADR-RES ovarian = tested on: NCI/ADR-RES ovarian
EKVX NSCLC = tested on: EKVX NSCLC
BT-549 breast = tested on: BT-549 breast
ACHN renal = tested on: ACHN renal
786-0 renal = tested on: 786-0 renal
HT29 colon = tested on: HT29 colon
MALME-3M melanoma = tested on: MALME-3M melanoma
UO-31 renal = tested on: UO-31 renal
U251 CNS = tested on: U251 CNS
SNB-75 CNS = tested on: SNB-75 CNS
SF-295 CNS = tested on: SF-295 CNS
OVCAR-4 ovarian = tested on: OVCAR-4 ovarian
A549 NSCLC = tested on: A549 NSCLC
M14 melanoma = tested on: M14 melanoma
UACC-62 melanoma = tested on: UACC-62 melanoma
PC-3 prostate = tested on: PC-3 prostate
MCF7 breast = tested on: MCF7 breast
DU-145 prostate = tested on: DU-145 prostate
RXF 393 renal = tested on: RXF 393 renal
SF-268 CNS = tested on: SF-268 CNS
MOLT-4 leukemia = tested on: MOLT-4 leukemia
CAKI-1 renal = tested on: CAKI-1 renal
HCT-116 colon = tested on: HCT-116 colon
OVCAR-5 ovarian = tested on: OVCAR-5 ovarian
T-47D breast = tested on: T-47D breast
MDA-MB-231 breast = tested on: MDA-MB-231 breast
NCI-H522 lung = tested on: NCI-H522 lung
K-562 leukemia = tested on: K-562 leukemia
SK-MEL-28 melanoma = tested on: SK-MEL-28 melanoma
COLO 205 colon = tested on: COLO 205 colon
UACC-257 melanoma = tested on: UACC-257 melanoma

`N#CC1=C(N)NC(=S)NC12Nc1ccccc1O2` (configuration not stated) showed a GI50 (TK-10 renal) of 42.5 µM, a TGI (TK-10 renal) greater than 100 µM and a GI50 (SF-539 CNS) of 45.8 µM. It also gave a TGI (SF-539 CNS) greater than 100 µM, a GI50 (CCRF-CEM leukemia) of 61.7 µM and a TGI (CCRF-CEM leukemia) greater than 100 µM. For the same compound, the GI50 (SN12C renal) was 25.2 µM, the TGI (SN12C renal) was 90 µM and the GI50 (NCI-H460 lung) was 65.5 µM. For the same compound, the TGI (NCI-H460 lung) was greater than 100 µM, the GI50 (SK-MEL-2 melanoma) was 20.9 µM and the TGI (SK-MEL-2 melanoma) was 53.4 µM. It also gave a GI50 (SR leukemia) of 0.597 µM, a TGI (SR leukemia) greater than 100 µM and a GI50 (OVCAR-3 ovarian) of 36.4 µM. For the same compound, the TGI (OVCAR-3 ovarian) was greater than 100 µM, the GI50 (NCI-H226 lung) was 30.5 µM and the TGI (NCI-H226 lung) was greater than 100 µM. It also gave a GI50 (HCT-15 colon) of 21.6 µM, a TGI (HCT-15 colon) greater than 100 µM and a GI50 (OVCAR-8 ovarian) of 46.2 µM. For the same compound, the TGI (OVCAR-8 ovarian) was greater than 100 µM, the GI50 (HS 578T breast) was 19.1 µM and the TGI (HS 578T breast) was 60.2 µM. The GI50 (HL-60(TB) leukemia) was 17.2 µM, the TGI (HL-60(TB) leukemia) was greater than 100 µM and the GI50 (IGROV1 ovarian) was 3.17 µM. The TGI (IGROV1 ovarian) was 24.9 µM, the GI50 (SW-620 colon) was 47.6 µM and the TGI (SW-620 colon) was greater than 100 µM. For the same compound, the GI50 (MDA-MB-435) was 16.8 µM, the TGI (MDA-MB-435) was greater than 100 µM and the GI50 (HOP-92 NSCLC) was greater than 100 µM. For the same compound, the TGI (HOP-92 NSCLC) was greater than 100 µM, the GI50 (RPMI-8226 leukemia) was 21.9 µM and the TGI (RPMI-8226 leukemia) was 62.7 µM. For the same compound, the GI50 (KM12 colon) was 27.1 µM, the TGI (KM12 colon) was greater than 100 µM and the GI50 (SNB-19 CNS) was 23.9 µM. The TGI (SNB-19 CNS) was greater than 100 µM, the GI50 (SK-MEL-5 melanoma) was 27.1 µM and the TGI (SK-MEL-5 melanoma) was 85.4 µM. The GI50 (HOP-62 NSCLC) was 17.5 µM, the TGI (HOP-62 NSCLC) was 57.7 µM and the GI50 (LOX IMVI melanoma) was 20.2 µM. It also gave a TGI (LOX IMVI melanoma) of 50.4 µM, a GI50 (NCI-H23 lung) of 20.4 µM and a TGI (NCI-H23 lung) of 69.7 µM. It also gave a GI50 (SK-OV-3 ovarian) of 37.9 µM, a TGI (SK-OV-3 ovarian) greater than 100 µM and a GI50 (NCI/ADR-RES ovarian) of 20.5 µM. For the same compound, the TGI (NCI/ADR-RES ovarian) was 69.6 µM, the GI50 (EKVX NSCLC) was 62.3 µM and the TGI (EKVX NSCLC) was greater than 100 µM. The GI50 (BT-549 breast) was 48.2 µM, the TGI (BT-549 breast) was greater than 100 µM and the GI50 (ACHN renal) was 29.2 µM. It also gave a TGI (ACHN renal) of 99.2 µM, a GI50 (786-0 renal) of 30.1 µM and a TGI (786-0 renal) greater than 100 µM. It also gave a GI50 (HT29 colon) of 31.2 µM, a TGI (HT29 colon) of 90.8 µM and a GI50 (MALME-3M melanoma) greater than 100 µM. It also gave a TGI (MALME-3M melanoma) greater than 100 µM, a GI50 (UO-31 renal) of 25.4 µM and a TGI (UO-31 renal) greater than 100 µM. It also gave a GI50 (U251 CNS) of 28.2 µM, a TGI (U251 CNS) greater than 100 µM and a GI50 (SNB-75 CNS) of 59.5 µM. The TGI (SNB-75 CNS) was greater than 100 µM, the GI50 (SF-295 CNS) was 38.4 µM and the TGI (SF-295 CNS) was greater than 100 µM. It also gave a GI50 (OVCAR-4 ovarian) of 52 µM, a TGI (OVCAR-4 ovarian) greater than 100 µM and a GI50 (A549 NSCLC) of 37.2 µM. It also gave a TGI (A549 NSCLC) greater than 100 µM, a GI50 (M14 melanoma) of 26 µM and a TGI (M14 melanoma) greater than 100 µM. For the same compound, the GI50 (UACC-62 melanoma) was 20.8 µM, the TGI (UACC-62 melanoma) was 70 µM and the GI50 (PC-3 prostate) was 28.6 µM. It also gave a TGI (PC-3 prostate) greater than 100 µM, a GI50 (MCF7 breast) of 27.2 µM and a TGI (MCF7 breast) greater than 100 µM. The GI50 (DU-145 prostate) was 55.1 µM, the TGI (DU-145 prostate) was greater than 100 µM and the GI50 (RXF 393 renal) was greater than 100 µM. It also gave a TGI (RXF 393 renal) greater than 100 µM, a GI50 (SF-268 CNS) of 51.2 µM and a TGI (SF-268 CNS) greater than 100 µM. The GI50 (MOLT-4 leukemia) was 3.72 µM, the TGI (MOLT-4 leukemia) was greater than 100 µM and the GI50 (CAKI-1 renal) was 39.1 µM. It also gave a TGI (CAKI-1 renal) greater than 100 µM, a GI50 (HCT-116 colon) of 22.5 µM and a TGI (HCT-116 colon) of 85.2 µM. For the same compound, the GI50 (OVCAR-5 ovarian) was 40.7 µM, the TGI (OVCAR-5 ovarian) was greater than 100 µM and the GI50 (T-47D breast) was 41.5 µM. For the same compound, the TGI (T-47D breast) was greater than 100 µM, the GI50 (MDA-MB-231 breast) was 19.3 µM and the TGI (MDA-MB-231 breast) was 76.7 µM. It also gave a GI50 (NCI-H522 lung) of 11.5 µM, a TGI (NCI-H522 lung) of 43.1 µM and a GI50 (K-562 leukemia) of 13.7 µM. It also gave a TGI (K-562 leukemia) greater than 100 µM, a GI50 (SK-MEL-28 melanoma) of 45.7 µM and a TGI (SK-MEL-28 melanoma) greater than 100 µM. The GI50 (COLO 205 colon) was 28.1 µM, the TGI (COLO 205 colon) was greater than 100 µM and the GI50 (UACC-257 melanoma) was 35.3 µM. The TGI (UACC-257 melanoma) was greater than 100 µM.
